Tested on: patients after acute myocardial infarction
Test: Angina pectoris score, total and single (frequency/attack times, duration, pain degree, dose of nitroglycerin), same clinical trial
Assay type: in vivo, human
Set-up: total angina pectoris score, Md / total angina pectoris score, Mean: scale not given here
Details: for change of attack times score, patients (%): Follow-up baseline
Text: In order to better understand the present invention, a multi-center, randomized, double-blind, double-dummy and positive drug controlled trial had been conducted. 3508 patients who were in accordance with the diagnostic standards of AMI for 28 days to 2 years and differentiated as Qi deficiency and blood stagnation syndrome by TCM were studied. 0.5 g Chinese medicine composition prepared by the method of EXAMPLE 1 (Coded as QSYQ) was administrated half an hour after meal, 3 times per day. Aspirine was used as a positive drug. The patients were treated for 1 year and observed for 6 months.
They included the overall survival time, angina pectoris score, TCM symptom score and life quality score, where angina pectoris score, TCM symptom score and life quality score were evaluated at randomization, in 1st, 3rd, 6th, 9th, 12th month after treatment and 18th month after follow-up.
(§1) Total angina pectoris score was described on every observation period and the change of observation in comparison with baseline. T-test or Wilcoxon rank sum test were used for inter-group comparison. Grade of total score was evaluated on every observation and Wilcoxon rank sum test was used for inter-group comparison. T-test and Pairing signed rank sum test were used for analyzing the change of total score on every observation between groups in comparison with the baseline.
(§2) Single angina pectoris score was depicted on every observation time-point and the change of observation in comparison with baseline. Wilcoxon rank sum test was used for inter-group comparison. Pairing signed rank sum test was used for analyzing the change of total score on every observation between groups in comparison with the baseline.
as §1, with “comparison with the baseline. T-test” for “comparison with baseline. T-test”
as §2, with “described” for “depicted”

[1] = FAS, 12 months after treatment-baseline
[2] = PP, 1 month after treatment-baseline
[3] = PP, 3 months after treatment-baseline

## CC(=O)Oc1ccccc1C(=O)O [Control group, aspirine]
[1]
  change of total angina pectoris score, Md: −2.00
  change of total angina pectoris score, Mean: −3.28
  patients with change of dose of nitroglycerin score 0 (%): (65.55%)
  patients with change of dose of nitroglycerin score 1 (%): (0.52%)
  patients with change of dose of nitroglycerin score 2 (%): (3.97%)
  patients with change of dose of nitroglycerin score 4 (%): (0.40%)
  patients with change of dose of nitroglycerin score 6 (%): (0.35%)
  patients with change of dose of nitroglycerin score −1 (%): (0.52%)
  patients with change of dose of nitroglycerin score −2 (%): (21.77%)
  patients with change of dose of nitroglycerin score −3 (%): (0.06%)
  patients with change of dose of nitroglycerin score −4 (%): (4.95%)
  patients with change of dose of nitroglycerin score −5 (%): (0.06%)
  patients with change of dose of nitroglycerin score −6 (%): (1.84%)
FAS, Baseline
  distribution of total angina pectoris score: Medium, number of patients: 608
  distribution of total angina pectoris score: Medium, percentage of patients: (34.90%)
  distribution of total angina pectoris score: Mild, number of patients: 1086
  distribution of total angina pectoris score: Mild, percentage of patients: (62.34%)
  distribution of total angina pectoris score: Severe, number of patients: 48
  distribution of total angina pectoris score: Severe, percentage of patients: (2.76%)
  total angina pectoris score, Md: 8.00
  total angina pectoris score, Mean: 7.12
FAS, Follow-up
  distribution of total angina pectoris score: Medium, number of patients: 199
  distribution of total angina pectoris score: Medium, percentage of patients: (13.79%)
  distribution of total angina pectoris score: Mild, number of patients: 1243
  distribution of total angina pectoris score: Mild, percentage of patients: (86.14%)
  distribution of total angina pectoris score: Severe, number of patients: 1
  distribution of total angina pectoris score: Severe, percentage of patients: (0.07%)
  patients with dose of nitroglycerin score 0 (%): (74.24%)
  patients with dose of nitroglycerin score 1 (%): (0.90%)
  patients with dose of nitroglycerin score 2 (%): (23.19%)
  patients with dose of nitroglycerin score 4 (%): (1.04%)
  patients with dose of nitroglycerin score 6 (%): (0.63%)
  total angina pectoris score, Md: 0.00
  total angina pectoris score, Mean: 3.59
FAS, Follow-up-baseline
  change of total angina pectoris score, Md: −2.00
  change of total angina pectoris score, Mean: −3.49
  patients with change of dose of nitroglycerin score 0 (%): (64.39%)
  patients with change of dose of nitroglycerin score 1 (%): (0.28%)
  patients with change of dose of nitroglycerin score 2 (%): (4.04%)
  patients with change of dose of nitroglycerin score 4 (%): (0.28%)
  patients with change of dose of nitroglycerin score 6 (%): (0.21%)
  patients with change of dose of nitroglycerin score −1 (%): (0.42%)
  patients with change of dose of nitroglycerin score −2 (%): (21.81%)
  patients with change of dose of nitroglycerin score −3 (%): (0.14%)
  patients with change of dose of nitroglycerin score −4 (%): (6.41%)
  patients with change of dose of nitroglycerin score −5 (%): (0.14%)
  patients with change of dose of nitroglycerin score −6 (%): (1.88%)
Change 0, FAS
  change of attack times score, patients (%): (44.70%)
Change 0, PP
  change of attack times score, patients (%): (44.46%)
Change 1, FAS
  change of attack times score, patients (%): (1.94%)
Change 1, PP
  change of attack times score, patients (%): (1.99%)
Change 2, FAS
  change of attack times score, patients (%): (1.73%)
Change 2, PP
  change of attack times score, patients (%): (1.70%)
Change 4, FAS
  change of attack times score, patients (%): (0.14%)
Change 4, PP
  change of attack times score, patients (%): (0.14%)
Change −1, FAS
  change of attack times score, patients (%): (22.52%)
Change −1, PP
  change of attack times score, patients (%): (22.44%)
Change −2, FAS
  change of attack times score, patients (%): (22.73%)
Change −2, PP
  change of attack times score, patients (%): (22.87%)
Change −3, FAS
  change of attack times score, patients (%): (2.01%)
Change −3, PP
  change of attack times score, patients (%): (2.06%)
Change −4, FAS
  change of attack times score, patients (%): (3.60%)
Change −4, PP
  change of attack times score, patients (%): (3.69%)
Change −5, FAS
  change of attack times score, patients (%): (0.21%)
Change −5, PP
  change of attack times score, patients (%): (0.21%)
Change −6, FAS
  change of attack times score, patients (%): (0.42%)
Change −6, PP
  change of attack times score, patients (%): (0.43%)
Follow-up, score 0, FAS
  attack times score, patients (%): (53.64%)
Follow-up, score 0, PP
  attack times score, patients (%): (53.48%)
Follow-up, score 1, FAS
  attack times score, patients (%): (22.80%)
Follow-up, score 1, PP
  attack times score, patients (%): (22.87%)
Follow-up, score 2, FAS
  attack times score, patients (%): (22.94%)
Follow-up, score 2, PP
  attack times score, patients (%): (23.01%)
Follow-up, score 4, FAS
  attack times score, patients (%): (0.62%)
Follow-up, score 4, PP
  attack times score, patients (%): (0.64%)
PP, 1 month after treatment
  distribution of total angina pectoris score: Medium, number of patients: 434
  distribution of total angina pectoris score: Medium, percentage of patients: (29.21%)
  distribution of total angina pectoris score: Mild, number of patients: 1030
  distribution of total angina pectoris score: Mild, percentage of patients: (69.31%)
  distribution of total angina pectoris score: Severe, number of patients: 22
  distribution of total angina pectoris score: Severe, percentage of patients: (1.48%)
  patients with dose of nitroglycerin score 0 (%): (59.61%)
  patients with dose of nitroglycerin score 1 (%): (0.27%)
  patients with dose of nitroglycerin score 2 (%): (29.40%)
  patients with dose of nitroglycerin score 4 (%): (7.48%)
  patients with dose of nitroglycerin score 6 (%): (3.24%)
  total angina pectoris score, Md: 6.00
  total angina pectoris score, Mean: 5.95
[2]
  change of total angina pectoris score, Md: 0.00
  change of total angina pectoris score, Mean: −1.22
  patients with change of dose of nitroglycerin score 0 (%): (80.36%)
  patients with change of dose of nitroglycerin score 1 (%): (0.20%)
  patients with change of dose of nitroglycerin score 2 (%): (3.78%)
  patients with change of dose of nitroglycerin score 4 (%): (1.01%)
  patients with change of dose of nitroglycerin score 6 (%): (0.27%)
  patients with change of dose of nitroglycerin score −2 (%): (11.54%)
  patients with change of dose of nitroglycerin score −4 (%): (2.29%)
  patients with change of dose of nitroglycerin score −6 (%): (0.54%)
PP, 3 months after treatment
  distribution of total angina pectoris score: Medium, number of patients: 363
  distribution of total angina pectoris score: Medium, percentage of patients: (24.64%)
  distribution of total angina pectoris score: Mild, number of patients: 1098
  distribution of total angina pectoris score: Mild, percentage of patients: (74.54%)
  distribution of total angina pectoris score: Severe, number of patients: 12
  distribution of total angina pectoris score: Severe, percentage of patients: (0.81%)
  patients with dose of nitroglycerin score 0 (%): (62.95%)
  patients with dose of nitroglycerin score 1 (%): (0.75%)
  patients with dose of nitroglycerin score 2 (%): (29.10%)
  patients with dose of nitroglycerin score 4 (%): (4.96%)
  patients with dose of nitroglycerin score 6 (%): (2.24%)
  total angina pectoris score, Md: 6.00
  total angina pectoris score, Mean: 5.32
[3]
  change of total angina pectoris score, Md: 0.00
  change of total angina pectoris score, Mean: −1.85
  patients with change of dose of nitroglycerin score 0 (%): (5.05%)
  patients with change of dose of nitroglycerin score 1 (%): (0.20%)
  patients with change of dose of nitroglycerin score 2 (%): (3.75%)
  patients with change of dose of nitroglycerin score 4 (%): (0.55%)
  patients with change of dose of nitroglycerin score 6 (%): (0.34%)
  patients with change of dose of nitroglycerin score −1 (%): (0.34%)
  patients with change of dose of nitroglycerin score −2 (%): (15.81%)
  patients with change of dose of nitroglycerin score −4 (%): (3.14%)
  patients with change of dose of nitroglycerin score −5 (%): (0.14%)

— patent publication US9211310B2, “Use of a Chinese medicine composition in preparing medicaments for treating secondary prevention of myocardial infarction” (TASLY PHARMACEUTICAL GROUP CO., LTD, priority 2010, dated 2015)
